11 compounds from EPA's ToxValDB 9.5 can be followed below.

Converted amounts (≈) assume the structure as drawn. “And” between values parts separate entries of the source, which are not always exact repeats. Equal values may be shown once.

Data set [1] concerns Rattus norvegicus. The note with it: Hershberger.
In data set [2] the test system is Rattus norvegicus. The note with it: for LD50 / LC50: acute.
The next data set relates to Mus musculus. As to conditions: for LD50: acute.
The subject of data set [3] is Rattus norvegicus. As to conditions: subchronic; duration: 13 weeks; oral; diet; M/F; Fischer 344; Deaths + Clinical Observation: Soft stool, Diarrhea Redness around anus + Body Weight Changes: decrease + Food Consumption: decrease + Blood….
The mark [4] stands for this setting: chronic, duration: 103 weeks, inhalation, Fischer 344.
[5] abbreviates: duration: 10 days, injection, subcutaneous, Fischer 344, active + Antiandrogenic + anti-androgenic.
Where [6] appears, read: subchronic, duration: 6 weeks, oral, gavage, F, Osborne-Mendel.
[7] abbreviates: subchronic, duration: 6 weeks, oral, gavage, M, Osborne-Mendel.
Where [8] appears, read: subchronic, duration: 6 weeks, oral, gavage, F, B6C3F1.
[9] abbreviates: subchronic, duration: 6 weeks, oral, gavage, M, B6C3F1.
The mark [10] stands for this setting: repeat dose other, inhalation, Fischer 344.
The mark [11] stands for this setting: chronic, duration: 103 weeks, oral, diet, Fischer 344.
[12] abbreviates: short-term, duration: 14 days, oral, diet, Fischer 344.
Where [13] appears, read: subchronic, duration: 13 weeks, oral, diet, Fischer 344.
Where [14] appears, read: short-term, duration: 14 days, oral, diet, B6C3F1.
The mark [15] stands for this setting: subchronic, duration: 13 weeks, oral, diet, B6C3F1.

With `Cl.N#Cc1ccc(C2CCCc3cncn32)cc1` (centres undefined), the NOEL in the data set on Rattus norvegicus [1] (duration: 7 days, oral, gavage, Wistar, inactive + Negative + anti-androgenic + high dose decreased body wt but no effect on PPS or AST) came to 6 mg/kg-day.

Turning to `CCCCCCCCCCCCCCC1CO1` (centres undefined) [1,2-Epoxyhexadecane], the LD50 (commonly the dose at which mortality reaches 50%) with Rattus norvegicus [2] (dermal, occlusive, Sprague-Dawley) was 2000 mg/kg; with Rattus norvegicus [2] (oral, gavage, Sprague-Dawley), greater than 5000 mg/kg. In addition, the LOAEL (in general, the lowest dose or exposure tested at which an adverse effect was seen) in the data set on Rattus norvegicus [2] (subchronic, duration: 90 days, dermal, Fischer 344) came out at 125 mg/kg-day; in the data set with Mus musculus (subchronic, duration: 13 weeks, dermal, B6C3F1), 125 mg/kg-day.

For the compound `CCCCCCCCCCCCCCCCCCN` [1-Octadecanamine], the LD50 in the data set on Rattus norvegicus [2] (oral, gavage) was 1000 mg/kg and > 2000 mg/kg; in the data set with Rattus norvegicus [2] (oral, gavage, Sprague-Dawley), 4800 mg/kg; in the data set on Rattus norvegicus [2] (oral, gavage, Wistar), no less than 2000 mg/kg; with Mus musculus (oral, gavage), 1000 mg/kg.

In the data set on Rattus norvegicus [2] (inhalation, Sprague-Dawley), `C=CC` [1-Propene] came in with an LC50 greater than 112000 mg/m3. Besides, the NOAEL (commonly the highest dose or exposure tested at which no adverse effect was seen) is 17200 mg/m3 in the data set with Rattus norvegicus [2] (chronic, duration: 14 weeks, inhalation, Fischer 344); 8610 mg/m3 in the data set with Rattus norvegicus [2] (setting [4]); no less than 8610 mg/m3 in the data set on Rattus norvegicus [2] (chronic, duration: 104 weeks, inhalation, Sprague-Dawley); 17200 mg/m3 in the data set on Rattus norvegicus [2] (short-term, duration: 4 weeks, inhalation, Fischer 344); 17200 mg/m3 with Mus musculus (chronic, duration: 14 weeks, inhalation, B6C3F1); no less than 8610 mg/m3 with Mus musculus (chronic, duration: 78 weeks, inhalation, Swiss). The compound also registered an NOAEL in the data set with Mus musculus (chronic, duration: 103 weeks, inhalation, B6C3F1) of no less than 17200 mg/m3. Also, in the data set with Rattus norvegicus [2] (setting [4]), the LOAEL was determined as 17200 mg/m3.

As to `O=C(c1ccc(O)cc1)c1ccc(O)cc1O` [2,4,4'-Trihydroxybenzophenone], in the data set with Rattus norvegicus [1] (setting [5]), the LOEL stood at 300 mg/kg-day and the NOEL was found to be 100 mg/kg-day.

For `O=S1(=O)CC=CC1` [2,5-Dihydrothiophene 1,1-dioxide], the LD50 with Rattus norvegicus [2] (oral, gavage, Sprague-Dawley) was found to be 2880 mg/kg. Moreover, the NOAEL was 75 mg/kg-day in the data set on Rattus norvegicus [2] (reproduction developmental, duration: 28 days, oral, gavage, Crj:CD, generation: F0); 25 mg/kg-day in the data set on Rattus norvegicus [2] (reproduction developmental, duration: 28 days, oral, gavage, Crj:CD, generation: F1); 100 mg/kg-day with Rattus norvegicus [2] (setting [6]); 316 mg/kg-day with Rattus norvegicus [2] (setting [7]); 178 mg/kg-day with Mus musculus (setting [8]); 562 mg/kg-day in the data set on Mus musculus (setting [9]). Besides, the LOAEL stood at 178 mg/kg-day in the data set on Rattus norvegicus [2] (setting [6]), 562 mg/kg-day with Rattus norvegicus [2] (setting [7]), 316 mg/kg-day with Mus musculus (setting [8]) and 1000 mg/kg-day in the data set with Mus musculus (setting [9]).

In the case of `C=CC(=O)OCCN(C)C` [2-(Dimethylamino)ethyl acrylate], the LC50 was 0.066 µg/mL (≈ 0.461 µM) with Rattus norvegicus [2] (Inhalation, Sprague-Dawley); 0.22 µg/mL and < 0.352 µg/mL in the data set with Rattus norvegicus [2] (inhalation); 0.972 µg/mL (≈ 6.79 µM) in the data set on Rattus norvegicus [2] (inhalation, Wistar). In addition, the LD50 amounted to 891 mg/kg in the data set on Rattus norvegicus [2] (dermal); 419 mg/kg in the data set with Rattus norvegicus [2] (dermal, semiocclusive, Sprague-Dawley); 183 mg/kg in the data set with Rattus norvegicus [2] (injection, Intraperitoneal); 533 mg/kg in the data set with Rattus norvegicus [2] (oral); 200 mg/kg in the data set on Mus musculus (injection, Intraperitoneal, NMRI). Moreover, the NOAEL in the data set with Rattus norvegicus [2] (developmental, oral, gavage, Crj:CD) stood at 30 mg/kg-day; in the data set on Rattus norvegicus [2] (reproduction developmental, duration: 43 days, oral, gavage, Sprague-Dawley) it was 20 mg/kg-day; in the data set on Rattus norvegicus [2] (reproduction developmental, duration: 43 days, oral, gavage, Sprague-Dawley, generation: F0) it was 100 mg/kg-day; with Rattus norvegicus [2] (subchronic, duration: 13 weeks, oral, gavage, Sprague-Dawley) it was 10 mg/kg-day.

`Clc1ccc(Cl)c(C(Cl)(Cl)Cl)n1` [3,6-Dichloro-2-(trichloromethyl)pyridine]: the LD50 in the data set with Rattus norvegicus [2] (oral, gavage) was ≥ 1000 mg/kg and ≤ 2000 mg/kg. In the data set with Rattus norvegicus [2] (setting [10]), this compound returned an LOAEL of 14.7 mg/m3. The NOAEL with Rattus norvegicus [2] (setting [10]) is 3.47 mg/m3; in the data set on Mus musculus (repeat dose other, inhalation, B6C3F1) it was 3.47 mg/m3.

Turning to `CCCCN(CCCC)c1cccc(O)c1` [3-(Dibutylamino)phenol], the NOEL in the data set with Rattus norvegicus [1] (duration: 10 days, oral, gavage, Wistar, inactive + Negative + Negative + anti-androgenic + negative) is 300 mg/kg-day.

On to `Nc1ccc(C=Cc2ccc(N)cc2S(=O)(=O)[O-])c(S(=O)(=O)[O-])c1.[Na+].[Na+]` [4,4'-Diamino-2,2'-stilbenedisulfonic acid, disodium salt], for which the NOEL in the data set on Rattus norvegicus [3] was less than 600 mg/kg-day. This compound also registered an LD50 in the data set with Rattus norvegicus [2] (oral, gavage, Wistar) greater than 5000 mg/kg. In addition, the LOAEL turned out to be 1950 mg/kg-day in the data set with Rattus norvegicus [2] (setting [11]); 50000 ppm in the data set on Rattus norvegicus [2] (setting [12]); 4800 mg/kg-day in the data set with Rattus norvegicus [2] (setting [13]); 50000 ppm with Mus musculus (setting [14]); 4920 mg/kg-day in the data set on Mus musculus (setting [15]). The NOAEL in the data set with Rattus norvegicus [2] (setting [11]) was 975 mg/kg-day; with Rattus norvegicus [2] (setting [12]), 25000 ppm; in the data set with Rattus norvegicus [2] (setting [13]) it was 2400 mg/kg-day; in the data set with Mus musculus (setting [14]), 25000 ppm; with Mus musculus (setting [15]), 2460 mg/kg-day.

For `NNS(=O)(=O)c1ccc(Oc2ccc(S(=O)(=O)NN)cc2)cc1` [4,4'-Oxybis(benzenesulfohydrazide)], the LD50 was 2300 mg/kg in the data set with Rattus norvegicus [2] (oral); greater than 5200 mg/kg in the data set with Rattus norvegicus [2] (oral, albino); greater than 5000 mg/kg in the data set on Mus musculus (injection, Intraperitoneal). Moreover, the LOAEL in the data set on Rattus norvegicus [2] (chronic, duration: 4 months, oral, gavage) came out at 36 mg/kg-day.
